Measurements taken from patent publication US8119681B2, “2-[1-phenyl-5-hydroxy or methoxy-4alpha-methyl-hexahydrocyclopenta [ƒ]indazole-5-YL]ethyl phenyl derivatives as glucocorticoid receptor ligands” (Merck Sharp & Dohme Corp., priority 2006, dated 2012).

Target: T1, glucocorticoid receptor (GR) (Homo sapiens, UniProt P04150)
T1 construct: endogenous in cells; host or cells: HeLa (ATCC) cell lysate supernatant
T1 sequence (P04150 1-777): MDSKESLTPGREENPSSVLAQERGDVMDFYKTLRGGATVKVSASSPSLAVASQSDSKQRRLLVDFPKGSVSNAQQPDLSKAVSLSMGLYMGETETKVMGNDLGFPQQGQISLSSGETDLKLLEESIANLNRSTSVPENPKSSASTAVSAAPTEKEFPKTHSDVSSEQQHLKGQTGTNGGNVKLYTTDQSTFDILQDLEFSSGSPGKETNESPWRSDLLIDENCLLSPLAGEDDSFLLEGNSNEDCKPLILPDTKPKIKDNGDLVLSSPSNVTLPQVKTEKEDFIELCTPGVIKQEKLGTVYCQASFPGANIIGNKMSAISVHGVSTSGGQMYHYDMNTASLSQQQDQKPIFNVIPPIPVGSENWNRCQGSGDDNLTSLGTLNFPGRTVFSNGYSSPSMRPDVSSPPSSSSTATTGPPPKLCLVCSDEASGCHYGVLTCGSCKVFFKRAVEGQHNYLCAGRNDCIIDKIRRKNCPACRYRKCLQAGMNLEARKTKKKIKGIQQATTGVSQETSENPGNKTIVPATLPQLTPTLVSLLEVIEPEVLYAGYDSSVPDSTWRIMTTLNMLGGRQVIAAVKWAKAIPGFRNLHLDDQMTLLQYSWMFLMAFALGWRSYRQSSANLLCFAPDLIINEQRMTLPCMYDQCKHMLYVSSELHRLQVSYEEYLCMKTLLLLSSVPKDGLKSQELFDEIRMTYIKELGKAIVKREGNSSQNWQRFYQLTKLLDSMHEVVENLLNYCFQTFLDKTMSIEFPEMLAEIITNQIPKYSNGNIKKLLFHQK
Assay: Ligand binding assay (GR BIND), 3H-dexamethasone displacement, HeLa cell lysate
Conditions: Table 1; HeLa cell lysate, 3H-DEX
Experimental: Binding Buffer: TEGM (10 mM Tris-HCl, 1 mM EDTA, 10% glycerol, 1 mM beta-mercaptoethanol, 10 mM Sodium Molybdate, pH 7.2)
50% HAP Slurry: Calbiochem Hydroxylapatite, Fast Flow, in 10 mM Tris, pH 8.0 and 1 mM EDTA.
Wash Buffer: 40 mM Tris, pH7.5, 100 mM KCl, 1 mM EDTA and 1 mM EGTA.
Dexmethasone-methyl-^3H, (DEX*); (Amersham cat# TRK645)
Dexamethasone (DEX) (Sigma, cat# D1756):
Phenol red-free Trypsin-EDTA is diluted in the same PBS 1:10. The cell layers are rinsed with 1× Trypsin, extra Trypsin is poured out, and the cell layers are incubated at 37° C. for ˜2 min. The flask is tapped and checked for signs of cell detachment. Once the cells begin to slide off the flask, the complete media is added. The cells are counted at this point, then diluted to the appropriate concentration and split into flasks or dishes for further culturing (Usually 1:3 to 1:6 dilution).
Preparation of Hela Cell Lysate
The cell pellet is washed twice with TEGM (10 mM Tris-HCl, 1 mM EDTA, 10% glycerol, 1 mM beta-mercaptoethanol, 10 mM Sodium Molybdate, pH 7.2). After the final wash, the cells are resuspended in TEGM at a concentration of 10^7 cells/mL. The cell suspension is snap frozen in liquid nitrogen or ethanol/dry ice bath and transferred to −80° C. freezer on dry ice. Before setting up the binding assay, the frozen samples are left on ice-water to just thaw (˜1 hr). Then the samples are centrifuged at 12,500 g to 20,000 g for 30 min at 4° C. The supernatant is used to set-up assay right away. If using 50 μL of supernatant, the test compound can be prepared in 50 μL of the TEGM buffer.
Procedure for Multiple Compound Screening
1×TEGM buffer is prepared, and the isotope-containing assay mixture is prepared in the following order: EtOH (2% final concentration in reaction), 3H-DEX (Amersham Biosciences) and 1×TEGM. [e.g. For 100 samples, 200 μL (100×2) of EtOH+4.25 μL of 1:10 ^3H-Dex stock+2300 μL (100×23) 1×TEGM]. The compound is serially diluted, e.g., if starting final conc. is 1 μM, and the compound is in 25 μL of solution, for duplicate samples, 75 μL of 4×1 μM solution is made and 3 μL of 100 μM is added to 72 μL of buffer, and 1:5 serial dilution.
25 μL of ^3H-DEX (6 nM) trace and 25 μL compound solution are first mixed together, followed by addition of 50 μL receptor solution. The reaction is gently mixed, spun briefly at about 200 rpm and incubated at 4° C. overnight. 100 μL of 50% HAP slurry is prepared and added to the incubated reaction which is then vortexed and incubated on ice for 5 to 10 minutes. The reaction mixture is vortexed twice more to resuspend HAP while incubating reaction. The samples in 96-well format are then washed in wash buffer using The FilterMate™ Universal Harvester plate washer (Packard). The washing process transfers HAP pellet containing ligand-bound expressed receptor to Unifilter-96 GF/B filter plate (Packard). The HAP pellet on the filter plate is incubated with 50 μL of MICROSCINT (Packard) scintillant for 30 minutes before being counted on the TopCount microscintillation counter (Packard). IC50s are calculated using DEX as a reference.

SMILES | Ki
CC(C)(C)NC(=O)c1c(F)cccc1CC[C@]1(O)CCC2=Cc3c(cnn3-c3ccc(F)cc3)C[C@@]21C [Example 59, N-(tert-butyl)-2-fluoro-6-{2-[(4αS,5R)-1-(4-fluorophenyl)-5-hydroxy-4α-methyl-1,4,4α,5,6,7-hexahydrocyclopenta[f]indazol-5-yl]ethyl}benzamide] | 1.83 nM
CC(C)CNC(=O)c1c(F)cccc1CC[C@]1(O)CCC2=Cc3c(cnn3-c3ccc(F)cc3)C[C@@]21C [Example 61, 2-fluoro-6-{2-[(4αS,5R)-1-(4-fluorophenyl)-5-hydroxy-4α-methyl-1,4,4α,5,6,7-hexahydrocyclopenta[f]indazol-5-yl]ethyl}-N-isobutylbenzamide] | 0.58 nM
CC(C)(C)NC(=O)c1ccccc1CC[C@]1(O)CCC2=Cc3c(cnn3-c3ccc(F)cc3)C[C@@]21C [Example 62, N-(tert-butyl)-2-{2-[(4αS,5R)-1-(4-fluorophenyl)-5-hydroxy-4α-methyl-1,4,4α,5,6,7-hexahydrocyclopenta[f]indazol-5-yl]ethyl}benzamide] | 9.58 nM
CC(C)S(=O)(=O)NCc1c(F)cccc1CC[C@]1(O)CCC2=Cc3c(cnn3-c3ccc(F)cc3)C[C@@]21C [Example 83, N-(2-fluoro-6-{2-[(4αS,5R)-1-(4-fluorophenyl)-5-hydroxy-4α-methyl-1,4,4α,5,6,7-hexahydrocyclopenta[f]indazol-5-yl]ethyl}benzyl)propane-2-sulfonamide] | 0.56 nM
CCS(=O)(=O)NCc1c(F)cccc1CC[C@]1(O)CCC2=Cc3c(cnn3-c3ccc(F)cc3)C[C@@]21C [Example 84, N-(2-fluoro-6-{2-[(4αS,5R)-1-(4-fluorophenyl)-5-hydroxy-4α-methyl-1,4,4α,5,6,7-hexahydrocyclopenta[f]indazol-5-yl]ethyl}benzyl)ethanesulfonamide] | 0.62 nM
C[C@]12Cc3cnn(-c4ccc(F)cc4)c3C=C1CC[C@@]2(O)CCc1cccc(F)c1CNS(=O)(=O)C(Cl)Cl [Example 85, 1,1-dichloro-N-(2-fluoro-6-{2-[(4αS,5R)-1-(4-fluorophenyl)-5-hydroxy-4α-methyl-1,4,4α,5,6,7-hexahydrocyclopenta[f]indazol-5-yl]ethyl}benzyl)methanesulfonamide] | 0.31 nM
C[C@]12Cc3cnn(-c4ccc(F)cc4)c3C=C1CC[C@@]2(O)CCc1cccc(F)c1CNS(=O)(=O)CC(F)(F)F [Example 86, 2,2,2-trifluoro-N-(2-fluoro-6-{2-[(4αS,5R)-1-(4-fluorophenyl)-5-hydroxy-4α-methyl-1,4,4α,5,6,7-hexahydrocyclopenta[f]indazol-5-yl]ethyl}benzyl)ethanesulfonamide] | 0.51 nM
C[C@]12Cc3cnn(-c4ccc(F)cc4)c3C=C1CC[C@@]2(O)CCc1cccc(F)c1CNS(=O)(=O)C1CC1 [Example 88, N-(2-fluoro-6-{2-[(4αS,5R)-1-(4-fluorophenyl)-5-hydroxy-4α-methyl-1,4,4α,5,6,7-hexahydrocyclopenta[f]indazol-5-yl]ethyl}benzyl)cyclopropanesulfonamide] | 0.57 nM
CN(C)S(=O)(=O)NCc1c(F)cccc1CC[C@]1(O)CCC2=Cc3c(cnn3-c3ccc(F)cc3)C[C@@]21C [Example 89, N′-(2-fluoro-6-{2-[(4αS,5R)-1-(4-fluorophenyl)-5-hydroxy-4α-methyl-1,4,4α,5,6,7-hexahydrocyclopenta[f]indazol-5-yl]ethyl}benzyl)-N,N-dimethylsulfamide] | 0.4 nM
C[C@]12Cc3cnn(-c4ccc(F)cc4)c3C=C1CC[C@@]2(O)CCc1ccccc1C1(NS(=O)(=O)C2CC2)CC1 [Example 91, N-[1-(2-{2-[(4αS,5R)-1-(4-fluorophenyl)-5-hydroxy-4α-methyl-1,4,4α,5,6,7-hexahydrocyclopenta[f]indazol-5-yl]ethyl}phenyl)cyclopropyl]cyclopropanesulfonamide] | 0.26 nM
C[C@]12Cc3cnn(-c4ccc(F)cc4)c3C=C1CC[C@@]2(O)CCc1ccccc1CC(N)=O [Example 107, 2-(2-{2-[(4αS,5R)-1-(4-fluorophenyl)-5-hydroxy-4α-methyl-1,4,4α,5,6,7-hexahydrocyclopenta[f]indazol-5-yl]ethyl}phenyl)acetamide] | 2.32 nM
CN(C)S(=O)(=O)Nc1c(F)cccc1CC[C@]1(O)CCC2=Cc3c(cnn3-c3ccc(F)cc3)C[C@@]21C [Example 113, N′-(2-fluoro-6-{2-[(4αS,5R)-1-(4-fluorophenyl)-5-hydroxy-4α-methyl-1,4,4α,5,6,7-hexahydrocyclopenta[f]indazol-5-yl]ethyl}phenyl)-N,N-dimethylsulfamide] | 2.66 nM
CCS(=O)(=O)Nc1ccccc1CC[C@]1(O)CCC2=Cc3c(cnn3-c3ccc(F)cc3)C[C@@]21C [Example 114, N-(2-{2-[(4αS,5R)-1-(4-fluorophenyl)-5-hydroxy-4α-methyl-1,4,4α,5,6,7-hexahydrocyclopenta[f]indazol-5-yl]ethyl}phenyl)ethanesulfonamide] | 2.77 nM
CN(C)S(=O)(=O)c1ccccc1CC[C@]1(O)CCC2=Cc3c(cnn3-c3ccc(F)cc3)C[C@@]21C [Example 138, 2-{2-[(4αS,5R)-1-(4-fluorophenyl)-5-hydroxy-4α-methyl-1,4,4α,5,6,7-hexahydrocyclopenta[f]indazol-5-yl]ethyl}-N,N-dimethylbenzenesulfonamide] | 0.84 nM
CCS(=O)(=O)c1ccccc1CC[C@]1(O)CCC2=Cc3c(cnn3-c3ccc(F)cc3)C[C@@]21C [Example 143, (4αS,5R)-5-{2-[2-(ethylsulfonyl)phenyl]ethyl}-1-(4-fluorophenyl)-4α-methyl-1,4,4α,5,6,7-hexahydrocyclopenta[f]indazol-5-ol] | 1.44 nM
C[C@]12Cc3cnn(-c4ccc(F)cc4)c3C=C1CC[C@@]2(O)CCc1ccccc1S(=O)(=O)C1CC1 [Example 144, (4αS,5R)-5-{2-[2-(cyclopropylsulfonyl)phenyl]ethyl}-1-(4-fluorophenyl)-4α-methyl-1,4,4α,5,6,7-hexahydrocyclopenta[f]indazol-5-ol] | 1.32 nM
C[C@]12Cc3cnn(-c4ccc(F)cc4)c3C=C1CC[C@@]2(O)CCc1cccc(F)c1CO [Example 148, (4αS,5R)-5-{2-[3-fluoro-2-(hydroxymethyl)phenyl]ethyl}-1-(4-fluorophenyl)-4α-methyl-1,4,4α,5,6,7-hexahydrocyclopenta[f]indazol-5-ol] | 0.67 nM

Same assay, conditions: Table 2; prior-art comparison compounds

SMILES | Ki
C[C@]12Cc3cnn(-c4ccc(F)cc4)c3C=C1CC[C@@]2(O)CCc1ccccc1F [Example 70 WO 2004/075840 A2, reference compound] | 2.95 nM
